According to ChEMBL document CHEMBL5727697, “TYK2 inhibitors and uses thereof” (2020):

Target: Non-receptor tyrosine-protein kinase TYK2 (Homo sapiens, UniProt P29597)
Experiment: Binding Assay: Binding constants for compounds of the present invention against the JH2 domain were determined by the following protocol for a KINOMEscan® assay (DiscoveRx). A fusion protein of a partial length construct of human TYK2 (JH2domain-pseudokinase) (amino acids G556 to D888 based on reference sequence NP_003322.3) and the DNA binding domain of NFkB was expressed in transiently transfected HEK293 cells. From these HEK 293 cells, extracts were prepared in M-PER extraction buffer (Pierce) in the presence of Protease Inhibitor Cocktail Complete (Roche) and Phosphatase Inhibitor Cocktail Set II (Merck) per manufacturers' instructions. The TYK2 (JH2domain-pseudokinase) fusion protein was labeled with a chimeric double-stranded DNA tag containing the NFkB binding site (5′-GGGAATTCCC-3′) fused to an amplicon for qPCR readout, which was added directly to the expression extract (the final concentration of DNA-tag in the binding reaction is 0.1 nM).
Assay type: cell-based

Non-receptor tyrosine-protein kinase TYK2, sequence (P29597 whole entry, the tested form may be a part): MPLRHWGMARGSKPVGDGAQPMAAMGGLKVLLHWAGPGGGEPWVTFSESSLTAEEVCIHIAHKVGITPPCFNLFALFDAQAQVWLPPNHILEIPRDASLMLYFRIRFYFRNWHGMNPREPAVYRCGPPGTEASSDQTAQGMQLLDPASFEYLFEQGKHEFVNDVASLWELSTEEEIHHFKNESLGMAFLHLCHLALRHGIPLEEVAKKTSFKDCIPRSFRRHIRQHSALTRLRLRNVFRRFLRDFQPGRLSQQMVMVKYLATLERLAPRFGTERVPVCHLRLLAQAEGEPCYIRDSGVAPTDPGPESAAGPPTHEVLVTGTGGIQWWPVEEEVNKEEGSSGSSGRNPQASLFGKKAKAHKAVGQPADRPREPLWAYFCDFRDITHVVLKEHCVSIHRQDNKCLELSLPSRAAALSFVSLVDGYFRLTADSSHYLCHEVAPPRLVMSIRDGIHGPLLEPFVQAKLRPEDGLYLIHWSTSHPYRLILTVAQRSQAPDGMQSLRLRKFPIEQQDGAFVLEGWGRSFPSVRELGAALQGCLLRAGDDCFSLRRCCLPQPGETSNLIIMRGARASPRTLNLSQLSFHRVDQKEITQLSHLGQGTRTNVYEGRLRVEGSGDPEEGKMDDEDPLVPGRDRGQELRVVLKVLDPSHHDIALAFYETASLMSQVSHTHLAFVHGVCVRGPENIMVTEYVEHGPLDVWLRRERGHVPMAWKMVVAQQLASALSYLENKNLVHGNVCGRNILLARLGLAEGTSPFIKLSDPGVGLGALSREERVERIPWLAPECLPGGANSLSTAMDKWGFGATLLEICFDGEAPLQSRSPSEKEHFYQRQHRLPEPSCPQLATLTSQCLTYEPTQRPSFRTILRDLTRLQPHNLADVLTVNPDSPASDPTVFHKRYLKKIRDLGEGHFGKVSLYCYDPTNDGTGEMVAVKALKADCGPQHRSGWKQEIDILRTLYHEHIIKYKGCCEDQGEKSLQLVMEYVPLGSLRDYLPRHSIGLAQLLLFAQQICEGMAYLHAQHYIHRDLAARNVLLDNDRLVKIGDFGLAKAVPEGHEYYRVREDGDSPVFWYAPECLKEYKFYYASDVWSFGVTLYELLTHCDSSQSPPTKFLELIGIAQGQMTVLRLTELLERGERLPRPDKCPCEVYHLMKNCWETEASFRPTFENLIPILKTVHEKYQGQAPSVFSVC

Question: With `Cc1nc2c(Nc3ccc(-c4cnn(C)c4C)cc3S(C)(=O)=O)cc(Nc3cccc(C#N)n3)nc2[nH]1` as the compound, how does the Kd read?
Answer: < 0.1 nM

Question: How did the Kd turn out when `COCCNc1ccc(Nc2cc(Nc3ccccc3N(C)S(C)(=O)=O)c3nc(C)[nH]c3n2)nc1C#N` was run?
Answer: < 0.1 nM

Question: `COc1c(Nc2cc(Nc3ccc(C(C)(C)OC)c(C#N)n3)nc3[nH]c(C)nc23)cccc1-c1nnn(C)n1` was tested. Which Kd did it give?
Answer: > 10 nM

Question: For `COc1ccccc1Nc1cc(Nc2ccc(N3CCC4(CCOCC4)CC3)cn2)nc2[nH]c(C)nc12`, which Kd is on record?
Answer: > 10 nM

Question: For `Cn1cncc1-c1ccc(Nc2cc(NC(=O)[C@@H]3C[C@@H]3F)nc3[nH]c(C(F)F)nc23)c(S(C)(=O)=O)c1`, which Kd is on record?
Answer: < 0.1 nM

Question: How did the Kd turn out when `CN(c1cc(-c2cncn2C)ccc1Nc1cc(NC(=O)[C@@H]2C[C@@H]2F)nc2[nH]c(C(F)F)nc12)S(C)(=O)=O` was run?
Answer: < 0.1 nM

Question: For `Cc1c(-c2ccc(Nc3cc(NC(=O)C4CC4)nc4[nH]c(C(F)F)nc34)c(S(C)(=O)=O)c2)cnn1C`, which Kd is on record?
Answer: < 0.1 nM
